One experiment addresses T1, Adenosine receptor A2b (Homo sapiens, UniProt P29275).
T1 sequence (P29275 whole entry): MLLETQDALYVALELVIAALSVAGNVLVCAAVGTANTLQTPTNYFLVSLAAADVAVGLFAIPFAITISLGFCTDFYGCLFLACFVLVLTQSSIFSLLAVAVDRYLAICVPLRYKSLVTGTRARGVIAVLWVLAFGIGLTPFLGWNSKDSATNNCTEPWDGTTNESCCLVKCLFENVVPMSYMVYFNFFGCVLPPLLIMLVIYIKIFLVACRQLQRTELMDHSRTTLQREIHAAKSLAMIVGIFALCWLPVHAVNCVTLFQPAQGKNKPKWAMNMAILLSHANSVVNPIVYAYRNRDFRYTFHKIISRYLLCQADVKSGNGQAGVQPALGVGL
Description: Displacement of [3H]DPCPX from human A2B adenosine receptor expressed in HEK293 cell membranes after 60 mins by radioligand displacement assay. For orientation: Loss of bound radioactivity is the signal in a displacement assay; it reports binding, not function.

The species entered for experiment [1] is Homo sapiens. The experiment can be described thus: Selectivity index, ratio of IC50 for human A2A adenosine receptor expressed in HEK293 cell membranes to IC50 for human A2B adenosine receptor expressed in HEK293 cell membranes. In kind it is cell-based.
The species named for experiment [2] is Homo sapiens. The experiment can be described thus: Selectivity index, ratio of IC50 for human A1 adenosine receptor expressed in CHO cell membranes to IC50 for human A2B adenosine receptor expressed in HEK293 cell membranes. In kind it is cell-based.
The species entered for experiment [3] is Homo sapiens. The experiment can be described thus: Selectivity index, ratio of IC50 for human A3 adenosine receptor expressed in HEK293 cell membranes to IC50 for human A2B adenosine receptor expressed in HEK293 cell membranes. The experiment is classed as cell-based.

Each structure is given as a SMILES string.

By IC50 is commonly meant the concentration that inhibits the measured activity by half.

Turning to `COCCn1c(=O)n(CCc2ccccc2)c(=O)c2c(C)c(C(=O)c3ccccc3)sc21`, on Adenosine receptor A2b, the IC50 came to 2300 nM. Also, the Ratio IC50 in the experiment filed under Homo sapiens [1] was determined as 3; in the experiment listed under Homo sapiens [2], 0.6.

For the molecule `Cc1csc2c1c(=O)n(CCc1ccccc1)c(=O)n2Cc1nc2cc(S(N)(=O)=O)ccc2o1`, the IC50 on Adenosine receptor A2b came out at 1100 nM. Also, the values for the Ratio IC50 in the experiment listed under Homo sapiens [1], in the experiment listed under Homo sapiens [2] and in the experiment listed under Homo sapiens [3] were 2, 0.83 and 6, respectively.

As to `COCCn1c(=O)n(CCc2ccccc2)c(=O)c2c(C)c(Cc3ccccc3)sc21`, the IC50 at Adenosine receptor A2b is 540 nM. The Ratio IC50 in the experiment listed under Homo sapiens [1] stood at 4; in the experiment filed under Homo sapiens [2], 0.19.

At Adenosine receptor A2b, `Cc1csc2c1c(=O)n(CCc1ccccc1)c(=O)n2CC(=O)Nc1cc(Cl)ccc1C(=O)O` registered an IC50 above 10000 nM.

Consider `COCCn1c(=O)n(CCc2ccccc2)c(=O)c2c(C)c(C(F)(F)c3ccccc3)sc21`, for which the IC50 on Adenosine receptor A2b came out at 2800 nM. For the same molecule, the Ratio IC50 in the experiment filed under Homo sapiens [1] amounted to 3; in the experiment filed under Homo sapiens [2], 0.36; in the experiment listed under Homo sapiens [3], 2.

With `Cc1csc2c1c(=O)n(CCc1ccccc1)c(=O)n2Cc1ncc[nH]1`, on Adenosine receptor A2b, the IC50 was 130 nM. In addition, the Ratio IC50 in the experiment listed under Homo sapiens [1] is 35; in the experiment listed under Homo sapiens [2], 11; in the experiment listed under Homo sapiens [3] it was 51.

As to `COCCn1c(=O)n(Cc2ccccc2)c(=O)c2c(C)csc21`, the IC50 at Adenosine receptor A2b is above 10000 nM. Also, the Ratio IC50 in the experiment listed under Homo sapiens [1], in the experiment filed under Homo sapiens [2] and in the experiment listed under Homo sapiens [3] was 1 each time.

`COCCn1c(=O)n(CCc2ccccc2)c(=O)c2c(C)c(Cl)sc21` had an IC50 at Adenosine receptor A2b of 3300 nM. In addition, the Ratio IC50 in the experiment listed under Homo sapiens [1] and in the experiment filed under Homo sapiens [2] was 3 each time.

Molecule `COCCn1c(=O)n(CCc2ccccc2)c(=O)c2c(C)c(CN3CCOCC3)sc21` displayed an IC50 at Adenosine receptor A2b of 760 nM. The Ratio IC50 came out at 7 in the experiment listed under Homo sapiens [1], 1 in the experiment listed under Homo sapiens [2] and 9 in the experiment filed under Homo sapiens [3].

For the molecule `COCCn1c(=O)n(CCc2ccccc2)c(=O)c2ccsc21`, the IC50 on Adenosine receptor A2b came out at 4700 nM. The Ratio IC50 amounted to 2 in the experiment listed under Homo sapiens [1], 2 in the experiment listed under Homo sapiens [2] and 1 in the experiment listed under Homo sapiens [3].

`COCCn1c(=O)n(CCc2ccccc2)c(=O)c2c(C)c(-c3ccccc3)sc21`: the IC50 at Adenosine receptor A2b amounted to 4900 nM. Further, the Ratio IC50 worked out at 2 in the experiment listed under Homo sapiens [1], 0.65 in the experiment filed under Homo sapiens [2] and 1 in the experiment filed under Homo sapiens [3].

Regarding `COCCn1c(=O)n(CCc2ccccc2)c(=O)c2c(C)c(COC3CCCC3)sc21`, on Adenosine receptor A2b, the IC50 is 250 nM. The Ratio IC50 was found to be 7 in the experiment filed under Homo sapiens [1], 4 in the experiment filed under Homo sapiens [2] and 27 in the experiment listed under Homo sapiens [3].

For `Cc1csc2c1c(=O)n(CCc1ccccc1)c(=O)n2CC1CCCO1` (stereo in doubt; 7), the Ratio IC50 in the experiment listed under Homo sapiens [1] was determined as 62; in the experiment filed under Homo sapiens [2], 46; in the experiment listed under Homo sapiens [3], 37.

As to `COCCn1c(=O)n(CCc2ccccc2)c(=O)c2c(C)c(C(=O)N3CCCC3)sc21`, the IC50 at Adenosine receptor A2b stood at 260 nM.

In turn, `COCCn1c(=O)n(CCC2CCOCC2)c(=O)c2c(C)csc21` had an IC50 on Adenosine receptor A2b above 10000 nM. Also, the Ratio IC50 in the experiment filed under Homo sapiens [1], in the experiment listed under Homo sapiens [2] and in the experiment listed under Homo sapiens [3] was 1 in each case.

As for `COCCn1c(=O)n(CCN2CCS(=O)(=O)CC2)c(=O)c2c(C)csc21`, on Adenosine receptor A2b, the IC50 was above 10000 nM. Also, the Ratio IC50 in the experiment filed under Homo sapiens [1], in the experiment filed under Homo sapiens [2] and in the experiment listed under Homo sapiens [3] was 1 in each case.

In the case of `CCn1c(=O)c2c3c(sc2n(CCOC)c1=O)CCCC3`, at Adenosine receptor A2b, the IC50 was 390 nM. In addition, the Ratio IC50 in the experiment filed under Homo sapiens [1] was 3; in the experiment listed under Homo sapiens [2] it was 5; in the experiment filed under Homo sapiens [3] it was 17.

`COCCn1c(=O)n(CCc2ccccc2F)c(=O)c2c(C)csc21`: the IC50 on Adenosine receptor A2b is 210 nM.

With `CCOC(=O)c1sc2c(c1C)c(=O)n(CCc1ccccc1)c(=O)n2CCOC`, the IC50 on Adenosine receptor A2b stood at 1700 nM. In addition, the Ratio IC50 in the experiment filed under Homo sapiens [1] came out at 6; in the experiment filed under Homo sapiens [2], 2; in the experiment listed under Homo sapiens [3], 4.

On Adenosine receptor A2b, `COCCn1c(=O)n(CC=C(F)F)c(=O)c2c(C)csc21` showed an IC50 of 4900 nM. The Ratio IC50 in the experiment listed under Homo sapiens [1] and in the experiment filed under Homo sapiens [2] was 2 throughout.

`CCn1c(=O)c2c(C)csc2n(CCOC)c1=O` displayed an IC50 at Adenosine receptor A2b of 640 nM. Further, the values for the Ratio IC50 in the experiment listed under Homo sapiens [1], in the experiment listed under Homo sapiens [2] and in the experiment listed under Homo sapiens [3] were 11, 6 and 10, respectively.

Regarding `COCCn1c(=O)n(CCc2ccccc2)c(=O)c2c(C)c(C)sc21`, the IC50 at Adenosine receptor A2b came to 200 nM. For the same molecule, the Ratio IC50 in the experiment listed under Homo sapiens [2] stood at 12; in the experiment filed under Homo sapiens [3], 33.

On Adenosine receptor A2b, `COCCn1c(=O)n(CCc2ccccc2)c(=O)c2c3c(sc21)CCCC3` registered an IC50 of 490 nM. Further, the Ratio IC50 in the experiment listed under Homo sapiens [2] was determined as 3; in the experiment listed under Homo sapiens [3] it was 13.

Turning to `Cc1csc2c1c(=O)n(CCc1ccccc1)c(=O)n2Cc1nccn1C`, on Adenosine receptor A2b, the IC50 is 145 nM. Also, the results for the Ratio IC50 in the experiment listed under Homo sapiens [1], in the experiment filed under Homo sapiens [2] and in the experiment listed under Homo sapiens [3] were 21, 4 and 46, respectively.

As to `COCCn1c(=O)n(CC(C)(C)C)c(=O)c2c(C)csc21`, the IC50 on Adenosine receptor A2b turned out to be 1600 nM. Also, the Ratio IC50 in the experiment filed under Homo sapiens [1] was 7; in the experiment filed under Homo sapiens [2], 7; in the experiment filed under Homo sapiens [3], 4.

At Adenosine receptor A2b, `COCCn1c(=O)n(CCc2ccccc2)c(=O)c2c(C)c(CO)sc21` had an IC50 of 150 nM. For the same molecule, the Ratio IC50 in the experiment filed under Homo sapiens [1] came out at 40; in the experiment filed under Homo sapiens [2] it was 11; in the experiment filed under Homo sapiens [3] it was 43.

In turn, `COCCn1c(=O)n(CC2(c3ccccc3)CC2)c(=O)c2c(C)csc21` came in with an IC50 at Adenosine receptor A2b of 1500 nM. In addition, the results for the Ratio IC50 in the experiment filed under Homo sapiens [1] and in the experiment listed under Homo sapiens [2] were 7 and 1, respectively.

Consider `COCCn1c(=O)n(CCc2ccccc2)c(=O)c2c3c(sc21)CCC3`, for which the IC50 at Adenosine receptor A2b amounted to 97 nM. Also, the Ratio IC50 amounted to 16 in the experiment filed under Homo sapiens [2] and 69 in the experiment filed under Homo sapiens [3].

The molecule `CCn1c(=O)c2c(C)c(C)sc2n(CCOC)c1=O` gave an IC50 at Adenosine receptor A2b of 440 nM. Further, the Ratio IC50 in the experiment filed under Homo sapiens [1] is 8; in the experiment filed under Homo sapiens [2], 9; in the experiment filed under Homo sapiens [3], 15.

`CCn1c(=O)c2c3c(sc2n(CCOC)c1=O)CCC3` had an IC50 on Adenosine receptor A2b of 220 nM. The Ratio IC50 in the experiment filed under Homo sapiens [1] is 11; in the experiment listed under Homo sapiens [2], 18; in the experiment filed under Homo sapiens [3] it was 30.

For the molecule `COCCn1c(=O)n(CCc2ccccc2)c(=O)c2c(C)c(C(C)(O)c3cncn3C)sc21` (centres undefined), the IC50 at Adenosine receptor A2b came out at 1200 nM. The figures for the Ratio IC50 in the experiment listed under Homo sapiens [1], in the experiment filed under Homo sapiens [2] and in the experiment filed under Homo sapiens [3] were 3, 2 and 6, respectively.

For the molecule `Cc1csc2c1c(=O)n(CCc1ccccc1)c(=O)n2CC#N`, the IC50 at Adenosine receptor A2b came out at 130 nM.

On Adenosine receptor A2b, `COCCn1c(=O)n(CCc2ccccc2)c(=O)c2c(C)c(C(=O)C3CC3)sc21` had an IC50 of 790 nM. For the same molecule, the Ratio IC50 is 1 in the experiment filed under Homo sapiens [1], 0.57 in the experiment listed under Homo sapiens [2] and 8 in the experiment listed under Homo sapiens [3].

For the molecule `COCCn1c(=O)n(CCc2ccccc2)c(=O)c2c(C)c(C(=O)c3cn(C)cn3)sc21`, the concentration for half-maximal inhibition (IC50) at Adenosine receptor A2b came to 190 nM. Further, the Ratio IC50 in the experiment filed under Homo sapiens [1] was 9; in the experiment filed under Homo sapiens [2], 4; in the experiment filed under Homo sapiens [3] it was 35.

On to `Cc1csc2c1c(=O)n(CCc1ccccc1)c(=O)n2CCF`, for which the IC50 on Adenosine receptor A2b was determined as 135 nM.

Turning to `Cc1csc2c1c(=O)n(CCc1ccccc1)c(=O)n2CC1CCCO1` (racemic), the Ratio IC50 in the experiment listed under Homo sapiens [1] was 21; in the experiment listed under Homo sapiens [2], 13; in the experiment filed under Homo sapiens [3], 13.
